Assay results as given in patent EP4015509A1, “ORGANOMETALLIC COMPOUNDS AND THEIR USE AS MULTIMODAL CONTRASTING MEDIA FOR IMAGING DIAGNOSIS” (Justesa Imagen S.A.U, priority 2020, dated 2022).
≈ marks a conversion by molar mass, not a printed value. Like-named read-outs stand apart in the source and are kept apart here.

Key:
[1] = Osmolality test with freezing point equipment; format: physicochemical; settings: solutions at a concentration of 0.1 M
[2] = test system: mice; assay: PET/CT imaging in an animal PET/CT scanner; format: in vivo; settings: 130 µCi solution, gallium 68-labelled compound, Figure 7
[3] = test system: V79 fibroblast cultures; assay: IC50 in vitro by cell viability measurement; format: cell-based
Source text: IC50 values were obtained by measuring cell viability in V79 fibroblast cultures as an alternative to animal experimentation. The values determined are summarized in the following table: Table 2: IC50 determination

[4] = target: T1, Bovine Serum Albumin (BSA) (Bos taurus, UniProt P02769); settings: 5 h, 0.25 mM, pH 7.4
T1 sequence (P02769 25-607): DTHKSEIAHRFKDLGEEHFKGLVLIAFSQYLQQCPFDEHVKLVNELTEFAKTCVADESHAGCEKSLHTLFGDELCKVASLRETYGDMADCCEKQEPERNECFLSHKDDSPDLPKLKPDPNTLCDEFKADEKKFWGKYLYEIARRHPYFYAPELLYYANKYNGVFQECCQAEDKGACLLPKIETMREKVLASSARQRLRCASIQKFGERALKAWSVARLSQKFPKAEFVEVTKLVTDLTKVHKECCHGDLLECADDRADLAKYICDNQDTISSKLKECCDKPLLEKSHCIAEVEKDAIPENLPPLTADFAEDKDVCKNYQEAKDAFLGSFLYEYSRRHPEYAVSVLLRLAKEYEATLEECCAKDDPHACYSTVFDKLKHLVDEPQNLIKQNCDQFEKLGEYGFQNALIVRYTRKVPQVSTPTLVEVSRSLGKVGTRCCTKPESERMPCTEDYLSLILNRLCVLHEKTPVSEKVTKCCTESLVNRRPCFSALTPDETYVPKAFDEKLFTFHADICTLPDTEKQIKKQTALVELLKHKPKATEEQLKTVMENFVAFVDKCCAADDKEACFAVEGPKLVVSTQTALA
Description: (§1) The albumin affinity test was carried out by in-vitro studies using Thermo Scientific™ "Single-Use RED Plate with 8K MWCO Inserts" 96-well plate, Bovine Serum Albumin (BSA) and HEPES. The technique of the devices is based on the process of equilibrium dialysis. The tests were carried out in a HEPES buffer with a pH of 7.4. In a typical test, following the manufacturer's measurement procedure, 400 µL of a solution containing the compound to be studied and BSA in concentrations of 0.25 mM and 0.6 mM respectively, in HEPES buffer, are added to the sample well. Additionally, 600 µL of HEPES buffer is added in the buffer well. After shaking the system for five hours at 300 rpm at a constant temperature of 37 °C, the concentration of the compound in each well is analysed. This analysis was performed using an Agilent ICP-MS (7900 Series) and with these concentration data the percentage of affinity of the studied compounds was determined.

[5] = test system: mice; assay: MRI imaging in a 7T animal magnetic resonance equipment; format: in vivo
Description: The test was carried out in a 7T animal magnetic resonance equipment by administering the contrast medium containing the compound (8) at a dose of 0.1 mmol/Kg to mice.

[6] = target: T1, Bovine Serum Albumin (BSA); assay: Albumin affinity test by equilibrium dialysis (RED plate), ICP-MS analysis; settings: compound 0.25 mM, BSA 0.6 mM, HEPES buffer pH 7.4, five hours, 37 °C
Description: as §1

Row | Compound | Osmolality (mOs/Kg) [1] | IC50 [3] | further results
1 | Gallium {10-{2-[2-(3-acetylamino-2,4,6-triiodophenylamino) aminoethyl]-2-oxoethyl}-1,4,7,10-tetraaza-1-cyclodecyl}-1,4,7-triacetate [Compound (7)] | 123.43 mOs/Kg | 8.64 mg/mL | organs differentiated in PET/CT images [2]: heart, liver, kidneys and bladder are differentiated
2 | CC(=O)Nc1c(I)cc(I)c(C(=O)O)c1I [Acetrizoic acid, reference compound] | 258.47 mOs/Kg |  | IC50 ([3]; read-out: IC50): 4.04 mg/mL (≈ 7.25 mM); Albumin affinity (%) [4]: 39.16%
3 | Gadolinium {10-{2-[2-(3-acetylamino-2,4,6-triiodophenylamino) aminoethyl]-2-oxoethyl}-1,4,7,10-tetraaza-1-cyclodecyl}-1,4,7-triacetate [Compound (8)] | 117.58 mOs/Kg | >75 mg/mL | visualisation of the liver in MRI ([5]; additional study, MRI signal, figures 5 and 6): visualisation of the liver is possible; elimination route of the contrast medium (MRI) ([5]; mice, dose of 0.1 mmol/Kg, 7T MRI, figures 3 and 4): elimination via the kidneys
4 | Europium {10-{2-{2-[2-(3-Carboxy-2,4,6-triiodophenylamino)-2-oxoethylamino] aminoethyl}-2-oxoethyl}-1,4,7,10-tetraaza-1-cyclodododecyl}-1,4,7-triacetate [Compound (16)] | 148.12 mOs/Kg | >75 mg/mL | 
5 | Europium {10-{2-[2-(3-acetylamino-2,4,6-triiodophenylamino) aminoethyl]-2-oxoethyl}-1,4,7,10-tetraaza-1-cyclodecyl}-1,4,7-trioacetate [Compound (9)] | 125.12 mOs/Kg | >75 mg/mL | 
6 | Gallium {10-{2-{2-[2-(3-Carboxy-2,4,6-triiodophenylamino)-2-oxoethylamino] aminoethyl}-2-oxoethyl}-1,4,7,10-tetraaza-1-cyclodododecyl}-1,4,7-triacetate [Compound (14)] | 150.42 mOs/Kg | 10.12 mg/mL | 
7 | Gadolinium {10-{2-{2-[2-(3-Carboxy-2,4,6-triiodophenylamino)-2-oxoethylamino] aminoethyl}-2-oxoethyl}-1,4,7,10-tetraaza-1-cyclodododecyl}-1,4,7-triacetate [Compound (15)] | 155.38 mOs/Kg | >75 mg/mL | 
8 | O=C([O-])CN1CCN(CC(=O)[O-])CCN([C@H](CO)[C@H](O)CO)CCN(CC(=O)[O-])CC1.[Gd+3] (racemic) [Gadobutrol, reference compound] | 93.33 mOs/Kg | >75 mg/mL | Albumin affinity (%) [6]: Not detectable
